Laboratory results taken from US20240199648A1, “MAP4K1 INHIBITORS” (Blueprint Medicines Corporation, priority 2021, published 2024).
Read-outs that look alike come from different tables or passages of the source.

How the values were obtained:
MAP4K1 (HPK1) = target: T1, MAP4K1 (HPK1) (Homo sapiens, UniProt Q92918); assay: Inhibition of MAP4K1 biochemical enzymatic activity (EZReader 2 electrophoretic mobility shift assay); conditions: HPK1 (Invitrogen), S6K2tide 1.5 μM, 120 min; ATP 26 μM or 1000 μM (not stated which)
T1 construct: purchased Invitrogen
T1 sequence (Q92918 whole entry): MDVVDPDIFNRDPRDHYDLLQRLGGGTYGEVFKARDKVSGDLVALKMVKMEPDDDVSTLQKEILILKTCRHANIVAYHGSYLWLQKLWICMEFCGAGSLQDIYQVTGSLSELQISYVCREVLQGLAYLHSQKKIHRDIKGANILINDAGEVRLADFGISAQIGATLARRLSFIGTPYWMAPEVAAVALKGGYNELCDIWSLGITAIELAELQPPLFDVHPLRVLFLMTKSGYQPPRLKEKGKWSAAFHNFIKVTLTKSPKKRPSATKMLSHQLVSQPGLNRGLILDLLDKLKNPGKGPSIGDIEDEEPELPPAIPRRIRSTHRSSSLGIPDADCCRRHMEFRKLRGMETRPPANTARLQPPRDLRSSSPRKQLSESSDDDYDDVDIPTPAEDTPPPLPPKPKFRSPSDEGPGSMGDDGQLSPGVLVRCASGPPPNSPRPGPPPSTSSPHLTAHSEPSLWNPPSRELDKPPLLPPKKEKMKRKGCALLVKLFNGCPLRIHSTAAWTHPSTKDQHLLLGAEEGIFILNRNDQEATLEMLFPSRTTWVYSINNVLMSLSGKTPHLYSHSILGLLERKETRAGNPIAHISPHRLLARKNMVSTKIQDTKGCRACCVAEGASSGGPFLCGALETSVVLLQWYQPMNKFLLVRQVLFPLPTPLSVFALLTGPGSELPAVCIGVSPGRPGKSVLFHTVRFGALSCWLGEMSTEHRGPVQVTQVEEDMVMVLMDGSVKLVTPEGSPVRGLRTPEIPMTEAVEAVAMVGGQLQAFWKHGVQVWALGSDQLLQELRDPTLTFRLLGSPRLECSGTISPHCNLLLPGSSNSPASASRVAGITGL
Excerpt: MAP4K1 (HPK1) and relevant off-target enzymatic activity was monitored using the Perkin Elmer electrophoretic mobility shift technology platform—the EZReader 2. […] Within the linear, steady-state phase of the kinase enzymatic reaction, the mixed pool of phosphorylated (product) and non-phosphorylated (substrate) peptides was passed through the microfluidic system of the PerkinElmer EZ Reader 2, under an applied electric potential difference. The presence of the phosphate group on the product peptide provided a difference in mass and charge between that of the substrate peptide, resulting in a separation of the substrate and product pools in the sample (Perrin et al. 2010). As the product and substrate peptide mixture passes the lasers within the instrument, these pools are detected (λex=488 nm, λem=568 nm) and resolved as separate peaks. The ratio between these peaks reflects the activity of the compound at that concentration, in that well, under those conditions.
Inhibitors were dissolved in 100% DMSO at a stock concentration of 10 mM. A 100×, 10-point, 4-fold serial dilution of each inhibitor was created in 100% DMSO either manually or on a Hamilton STAR liquid handler, starting at a relevant concentration, usually 1 mM. A volume of 0.130 μL of each concentration was transferred to the relevant wells of a 384-well plate (Greiner 781 201) in diplicate using a TTPLabtech Mosquito nano-litre dispenser. Using a Multidrop Combi, the remaining constituents of the kinase reaction were added to the 130 nL of dosed compound as follows (see table below for final reaction details):
Enzyme activity assays at the ^APPKM for ATP or 1 mM ATP: In each well of a 384-well plate, 0.1-15 nM of untreated enzyme was incubated in a total of 13 μL of buffer (100 mM HEPES pH 7.5, 0.015% Brij 35, 10 mM MgCl2, 1 mM DTT) with 1.5 μM fluorescent peptid and 20-1000 μM ATP, at 25° C., for 60-180 minutes in the presence or absence of a dosed concentration series of compound (1% DMSO final concentration). The kinase reactions were stopped by the addition of 70 μl of Stop buffer (100 mM HEPES pH 7.5, 0.015% Brij 35, 35 mM EDTA and 0.2% of Coating Reagent 3 (Caliper Lifesciences)). The plates were read on a Caliper EZReader 2 as described above.

Primary T Cell = assay: T cell enhancement of cytokines: IL2 measurement (HTRF) in expanded CD3+ T cells stimulated with anti-CD3/anti-CD28; format: cell-based, human; conditions: plate-bound anti-CD3 and soluble anti-CD28, 24 h, read-out: IL-2 Primary T Cell EC50
Method: T cells are isolated from whole blood of healthy donors by immunomagnetic negative selection following manufacture's protocol (StemCell Technologies, human T cell isolation kit). Purity of isolated cells is assessed by flow cytometry and yields 95-98% CD3^+ T cells. For expansion of T cells, 1×10^6 cells/well are plated in serum free cell expansion media (ThermoFisher) containing 30U of recombinant human IL2 (R&D) and stimulated with 25 ul of CD3/CD28 beads (Invitrogen) in 24 well plates for 3-4 days. T cells are then expanded in 175 cm flasks and maintained at a cell density of 1 to 2.5×10^6 cells/ml days by addition of ⅔ of fresh media every 2-3 days. After 10-14 days, cells are frozen in BamBanker freezing media (Thermo) and stored in liquid nitrogen.
For IL2 measurement, expanded CD3+ T cells are dispensed at 100K cells/well (cultured in X-VIVO 10 Serum-free media) and are stimulated with plate-bound anti-CD3 and soluble anti-CD28 in the presence of vehicle or compound of the disclosure at various concentrations for 24 h. As outlined in the manufacturer's protocol (Cisbio), 16 μL of conditioned media is transferred to a white 384-well low volume plate. Following a 24 h incubation with the anti-IL2 antibodies, the homogenous time resolved fluorescence (HTRF) is measured.

Row | SMILES | IC50 (MAP4K1 (HPK1)) | EC50 (Primary T Cell; Homo sapiens, T-cell, 24 h) | EC50 (Primary T Cell)
1 | CC[C@@H](N)c1cnc(OC2CN(C(=O)[C@@H]3C[C@@H]3F)C2)c2cnc(Nc3ccc4c(n3)[C@@H](C)C(C)(C)OC4=O)cc12 (single isomer, unassigned) [Compound 11, (R)-2-((5-((R)-1-aminopropyl)-8-((1-((1S,2S)-2-fluorocyclopropane-1-carbonyl)azetidin-3-yl)oxy)-2,7-naphthyridin-3-yl)amino)-7,7,8-trimethyl-7,8-dihydro-5H-pyrano[4,3-b]pyridin-5-one or (R)-2-((5-((S)-1-aminopropyl)-8-((1-((1S,2S)-2-fluorocyclopropane-1-carbonyl)azetidin-3-yl)oxy)-2,7-naphthyridin-3-yl)amino)-7,7,8-trimethyl-7,8-dihydro-5H-pyrano[4,3-b]pyridin-5-one] | 0.63 nM | 38.6 nM | 
2 | CC(=O)N1CC(Oc2ncc(C(C)(C)N)c3cc(Nc4ccc5c(n4)[C@@H](C)[C@H](C)OC5=O)ncc23)C1 [Compound 1, (7S,8R)-2-((8-((1-acetylazetidin-3-yl)oxy)-5-(2-aminopropan-2-yl)-2,7-naphthyridin-3-yl)amino)-7,8-dimethyl-7,8-dihydro-5H-pyrano[4,3-b]pyridin-5-one] | 0.18 nM | 34.7 nM | 
3 | CC(=O)N1C[C@@H](Oc2ncc(C(C)(C)N)c3cc(Nc4ccc5c(n4)[C@@H](C)[C@H](C)OC5=O)ncc23)[C@@H]1C [Compound 3] | 0.33 nM | 33.5 nM | 
4 | CC(=O)N1CC(Oc2ncc(C(C)(C)N)c3cc(Nc4ccc5c(n4)[C@@H](C)C(C)(C)OC5=O)ncc23)C1 [Compound 4, (R)-2-((8-((1-Acetylazetidin-3-yl)oxy)-5-(2-aminopropan-2-yl)-2,7-naphthyridin-3-yl)amino)-7,7,8-trimethyl-7,8-dihydro-5H-pyrano[4,3-b]pyridin-5-one] | 0.15 nM | 19.9 nM | 
5 | C[C@@H]1OC(=O)c2ccc(Nc3cc4c(C(C)(C)N)cnc(OC5CN(C(=O)C6CC6)C5)c4cn3)nc2[C@H]1C [Compound 5] | 0.17 nM | 17.7 nM | 
6 | CCC(=O)N1CC(Oc2ncc(C(C)(C)N)c3cc(Nc4ccc5c(n4)[C@@H](C)C(C)(C)OC5=O)ncc23)C1 [Compound 6] | 0.2 nM | 22.5 nM | 
7 | CC(=O)N1C[C@@H](Oc2ncc(C(C)(C)N)c3cc(Nc4ccc5c(n4)[C@@H](C)C(C)(C)OC5=O)ncc23)[C@@H]1C [Compound 7] | 0.12 nM | 22.3 nM | 
8 | C[C@@H]1c2nc(Nc3cc4c(C(C)(C)N)cnc(OC5CN(C(=O)C6CC6)C5)c4cn3)ccc2C(=O)OC1(C)C [Compound 8] | 0.16 nM | 32.7 nM | 
9 | C[C@@H]1OC(=O)c2ccc(Nc3cc4c(C(C)(C)N)cnc(OC5CN(C(=O)[C@H]6C[C@H]6F)C5)c4cn3)nc2[C@H]1C [Compound 9] | 0.16 nM | 16.8 nM | 
10 | C[C@@H]1OC(=O)c2ccc(Nc3cc4c(C(C)(C)N)cnc(OC5CN(C(=O)[C@@H]6C[C@@H]6F)C5)c4cn3)nc2[C@H]1C [Compound 10] | 0.13 nM | 8.1 nM | 
11 | C[C@@H]1c2nc(Nc3cc4c(C(C)(C)N)cnc(OC5CN(C(=O)[C@@H]6C[C@@H]6F)C5)c4cn3)ccc2C(=O)OC1(C)C [Compound 12] | 0.16 nM | 10.5 nM | 
12 | C[C@@H]1c2nc(Nc3cc4c(C(C)(C)N)cnc(OC5CN(C(=O)[C@H]6C[C@H]6F)C5)c4cn3)ccc2C(=O)OC1(C)C [Compound 13, (R)-2-((5-(2-aminopropan-2-yl)-8-((1-((1R,2R)-2-fluorocyclopropane-1-carbonyl)azetidin-3-yl)oxy)-2,7-naphthyridin-3-yl)amino)-7,7,8-trimethyl-7,8-dihydro-5H-pyrano[4,3-b]pyridin-5-one] | 0.17 nM | 23.2 nM | 
13 | C[C@@H]1c2nc(Nc3cc4c(C(C)(C)N)cnc(O[C@@H]5CN(C(=O)[C@@H]6C[C@@H]6F)[C@H]5C)c4cn3)ccc2C(=O)OC1(C)C [Compound 14] | 0.19 nM | 15.3 nM | 

Other lines, results leading:

Row | IC50 (MAP4K1 (HPK1)) | EC50 (Primary T Cell; Homo sapiens, T-cell, 24 h) | EC50 (Primary T Cell) | SMILES
14 | 0.19 nM | 160 nM |  | CC[C@@H](N)c1ccc(OC2CN(C(=O)C3CC3)C2)c2cnc(Nc3ccc4c(n3)[C@@H](C)C(C)(C)OC4=O)cc12 (single isomer, unassigned) [Compound 40, (R)-2-((5-((R)-1-Aminopropyl)-8-((1-(cyclopropanecarbonyl)azetidin-3-yl)oxy)isoquinolin-3-yl)amino)-7,7,8-trimethyl-7,8-dihydro-5H-pyrano[4,3-b]pyridin-5-one or (R)-2-((5-((S)-1-aminopropyl)-8-((1-(cyclopropanecarbonyl)azetidin-3-yl)oxy)isoquinolin-3-yl)amino)-7,7,8-trimethyl-7,8-dihydro-5H-pyrano[4,3-b]pyridin-5-one]
15 | 0.16 nM | 71.2 nM |  | C[C@@H]1c2nc(Nc3cc4c(C(C)(C)N)cnc(OC5CC(C)(C(=O)N(C)C)C5)c4cn3)ccc2C(=O)OC1(C)C (single isomer, unassigned) [Compound 81]
16 | 0.11 nM |  | 23.8 nM | CC[C@@H](N)c1ccc(OC2CN(C(=O)[C@@H]3C[C@@H]3F)C2)c2cnc(Nc3ccc4c(n3)[C@@H](C)C(C)(C)OC4=O)cc12 (single isomer, unassigned) [Compound 83, (R)-2-((5-((R)-1-Aminopropyl)-8-((1-((1S,2S)-2-fluorocyclopropane-1-carbonyl)azetidin-3-yl)oxy)isoquinolin-3-yl)amino)-7,7,8-trimethyl-7,8-dihydro-5H-pyrano[4,3-b]pyridin-5-one or (R)-2-((5-((S)-1-aminopropyl)-8-((1-((1S,2S)-2-fluorocyclopropane-1-carbonyl)azetidin-3-yl)oxy)isoquinolin-3-yl)amino)-7,7,8-trimethyl-7,8-dihydro-5H-pyrano[4,3-b]pyridin-5-one]
17 | 0.09 nM |  | 10.3 nM | COCC(C)(N)c1cnc(OC2CN(C(=O)C3CC3F)C2)c2cnc(Nc3ccc4c(n3)C(C)C(C)OC4=O)cc12 (single isomer, unassigned) [Compound 96]
18 | 0.36 nM |  | 50.1 nM | COCC(C)(N)c1cnc(OC2CN(C(=O)C3CC3F)C2)c2cnc(Nc3ccc4c(n3)C(C)C(C)OC4=O)cc12 (single isomer, unassigned) [Compound 97]
19 | 0.24 nM | 10.2 nM |  | CCC[C@@](C)(N)c1ncc(OC2CN(C(C)=O)C2)c2cnc(Nc3ccc4c(n3)CC(C)(C)OC4=O)cc12 (single isomer, unassigned) [Compound 112]
20 | 0.11 nM | 7.4 nM |  | CCCC(C)(N)c1cnc(OC2CN(C(C)=O)C2)c2cnc(Nc3ccc4c(n3)[C@@H](C)[C@H](C)OC4=O)cc12 (single isomer, unassigned) [Compound 113]
21 | 0.1 nM | 5.4 nM |  | CCCC(C)(N)c1cnc(OC2CN(C(C)=O)C2)c2cnc(Nc3ccc4c(n3)[C@@H](C)C(C)(C)OC4=O)cc12 (single isomer, unassigned) [Compound 115]
22 | 0.09 nM | 74.2 nM |  | CC[C@H](N)c1cnc(O[C@H]2C[C@@H](C(=O)N3CC(OC)C3)C2)c2cnc(Nc3ccc4c(n3)[C@@H](C)C(C)(C)OC4=O)cc12 (single isomer, unassigned) [Compound 127]
23 | 0.26 nM | 99.3 nM |  | CC[C@@H](N)c1ccc(OC2CN(C(C)=O)C2)c2cnc(Nc3ccc4c(n3)[C@@H](C)C(C)(C)OC4=O)cc12 (stereo in doubt) [Compound 20]
24 | 0.54 nM | 57.4 nM |  | CC[C@@H](N)c1cnc(OC2CN(C(=O)C3CC3)C2)c2cnc(Nc3ccc4c(n3)[C@@H](C)C(C)(C)OC4=O)cc12 (stereo in doubt) [Compound 53]
